Results as given in US12577226B2, “Compounds for treating Huntington's disease” (PTC THERAPEUTICS, INC., priority 2019, dated 2026).
pIC50: −log10 of the molar value.

system: Endogenous Huntingtin Protein (capture with MW1 (expanded polyglutamine) or MAB2166 antibody); assay: Endogenous Huntingtin Protein Assay (ELISA-based Meso Scale Discovery electrochemiluminescence assay); type: cell-based; details: MSD electrochemiluminescence platform
Summary of the method: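 MSD electrochemiluminescence sandwich immunoassay: plates coated with 1 μg/mL MW1 or MAB2166 capture antibody, samples incubated overnight at 4 °C. Detection with rabbit monoclonal #5656S then SULFO-TAG anti-rabbit (each 0.25 μg/mL, 1 h RT).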

pIC50	Compound
≥ 7.00	Cn1cc2cc(-c3cnc(-c4ccc(N5CCNC6(CC6)C5)nn4)c(O)c3)cc(F)c2n1 [Compound 98, 2-[6-(4,7-diazaspiro[2.5]octan-7-yl)pyridazin-3-yl]-5-(7-fluoro-2-methyl-2H-indazol-5-yl)pyridin-3-ol]
6.30 to 7.00	Cn1cc2cc(-c3cnc(-c4ccc(N5CCN(C6CC6)CC5)nn4)c(O)c3)cc(F)c2n1 [Compound 100, 2-[6-(4-cyclopropylpiperazin-1-yl)pyridazin-3-yl]-5-(7-fluoro-2-methyl-2H-indazol-5-yl)pyridin-3-ol]
≥ 7.00	CN1CCN(c2ccc(-c3ncc(-c4cc(F)c5nn(C)cc5c4)cc3O)nn2)CC1 [Compound 101, 5-(7-fluoro-2-methyl-2H-indazol-5-yl)-2-[6-(4-methylpiperazin-1-yl)pyridazin-3-yl]pyridin-3-ol]
≥ 7.00	C[C@H]1CN(c2ccc(-c3ncc(-c4cc(F)c5nn(C)cc5c4)cc3O)nn2)CCN1 [Compound 103, 5-(7-fluoro-2-methyl-2H-indazol-5-yl)-2-{6-[(3S)-3-methylpiperazin-1-yl]pyridazin-3-yl}pyridin-3-ol]
≥ 7.00	C[C@@H]1CN(c2ccc(-c3ncc(-c4cc(F)c5nn(C)cc5c4)cc3O)nn2)CCN1 [Compound 104, 5-(7-fluoro-2-methyl-2H-indazol-5-yl)-2-{6-[(3R)-3-methylpiperazin-1-yl]pyridazin-3-yl}pyridin-3-ol]
6.00 to 6.30	Cc1n[nH]cc1CNc1cnc(-c2ccc(N3CCNC(C)C3)nn2)c(O)c1 (centres unmarked) [Compound 108, 2-[6-(3-methylpiperazin-1-yl)pyridazin-3-yl]-5-{[(3-methyl-1H-pyrazol-4-yl)methyl]amino}pyridin-3-ol]
6.00 to 6.30	CC1CN(c2ccc(-c3ncc(NCc4ccccn4)cc3O)nn2)CCN1 (centres unmarked) [Compound 109, 2-[6-(3-methylpiperazin-1-yl)pyridazin-3-yl]-5-{[(pyridin-2-yl)methyl]amino}pyridin-3-ol]
6.00 to 6.30	CC1CN(c2ccc(-c3ncc(NCc4ccncc4)cc3O)nn2)CCN1 (centres unmarked) [Compound 111, 2-[6-(3-methylpiperazin-1-yl)pyridazin-3-yl]-5-{[(pyridin-4-yl)methyl]amino}pyridin-3-ol]
6.00 to 6.30	CC1CN(c2ccc(-c3ncc(NCc4cccc5cccnc45)cc3O)nn2)CCN1 (centres unmarked) [Compound 113, 2-[6-(3-methylpiperazin-1-yl)pyridazin-3-yl]-5-{[(quinolin-8-yl)methyl]amino}pyridin-3-ol]
≥ 7.00	CC1(C)CC(Oc2ccc(-c3ncc(-c4cn[nH]c4)cc3O)nn2)CC2(COC2)N1 (centres unmarked) [Compound 114, 2-{6-[(6,6-dimethyl-2-oxa-5-azaspiro[3.5]nonan-8-yl)oxy]pyridazin-3-yl}-5-(1H-pyrazol-4-yl)pyridin-3-ol]
6.00 to 6.30	Cc1cn2cc(-c3cnc(-c4ccc(N5CC6CC5CN6)nn4)c(O)c3)cnc2n1 (centres unmarked) [Compound 116, 2-[6-(2,5-diazabicyclo[2.2.1]heptan-2-yl)pyridazin-3-yl]-5-(2-methylimidazo[1,2-a]pyrimidin-6-yl)pyridin-3-ol]
6.00 to 6.30	CC1CN(c2ccc(-c3ncc(Nc4cccnc4)cc3O)nn2)CCN1 (centres unmarked) [Compound 117, 2-[6-(3-methylpiperazin-1-yl)pyridazin-3-yl]-5-[(pyridin-3-yl)amino]pyridin-3-ol]
6.30 to 7.00	Cc1ccc(Nc2cnc(-c3ccc(N4C[C@@H](C)N[C@@H](C)C4)nn3)c(O)c2)cn1 [Compound 125, 2-{6-[(3R,5S)-3,5-dimethylpiperazin-1-yl]pyridazin-3-yl}-5-[(6-methylpyridin-3-yl)amino]pyridin-3-ol]
≥ 7.00	[2H]C([2H])([2H])n1cc(-c2cnc(-c3ccc(N4CCN[C@@H](C5CC5)C4)nn3)c(O)c2)cn1 [Compound 129, 2-{6-[(3S)-3-cyclopropylpiperazin-1-yl]pyridazin-3-yl}-5-[1-(^2H3)methyl-1H-pyrazol-4-yl]pyridin-3-ol]
6.00 to 6.30	CC(C)C1CN(c2ccc(-c3ncc(/C=C/c4cn[nH]c4)cc3O)nn2)CCN1 (centres unmarked) [Compound 130, 2-{6-[3-(propan-2-yl)piperazin-1-yl]pyridazin-3-yl}-5-[(E)-2-(1H-pyrazol-4-yl)ethenyl]pyridin-3-ol]

More lines, now with the values behind:

Compound	pIC50
COc1cc(-c2cnc(-c3ccc(N4C[C@@H](C)N[C@@H](C)C4)nn3)c(O)c2)ccn1 [Compound 96, 6-{6-[(3R,5S)-3,5-dimethylpiperazin-1-yl]pyridazin-3-yl}-2′-methoxy[3,4′-bipyridin]-5-ol and 6-{6-[(3S,5R)-3,5-dimethylpiperazin-1-yl]pyridazin-3-yl}-2′-methoxy[3,4′-bipyridin]-5-ol]	6.30 to 7.00
CC1CN(c2ccc(-c3ncc(-c4cc(F)c5nn(C)cc5c4)cc3O)nn2)CCN1 (centres unmarked) [Compound 97, 5-(7-fluoro-2-methyl-2H-indazol-5-yl)-2-[6-(3-methylpiperazin-1-yl)pyridazin-3-yl]pyridin-3-ol]	≥ 7.00
Cc1nc2ccc(-c3cnc(-c4ccc(N5C[C@@H](C)N[C@@H](C)C5)nn4)c(O)c3)cn2n1 [Compound 99, 2-{6-[(3R,5S)-3,5-dimethylpiperazin-1-yl]pyridazin-3-yl}-5-(2-methyl[1,2,4]triazolo[1,5-a]pyridin-6-yl)pyridin-3-ol and 2-{6-[(3S,5R)-3,5-dimethylpiperazin-1-yl]pyridazin-3-yl}-5-(2-methyl[1,2,4]triazolo[1,5-a]pyridin-6-yl)pyridin-3-ol]	6.30 to 7.00
CC1(C)C[C@H](Oc2ccc(-c3ncc(-c4cn[nH]c4)cc3O)nn2)[C@H](F)C(C)(C)N1[O] [Compound 102, [(3R,4S)-3-fluoro-4-({6-[3-hydroxy-5-(1H-pyrazol-4-yl)pyridin-2-yl]pyridazin-3-yl}oxy)-2,2,6,6-tetramethylpiperidin-1-yl]oxidanyl]	6.00 to 6.30
Cn1cc2cc(-c3cnc(-c4ccc(N5CC6CC5CN6)nn4)c(O)c3)cc(F)c2n1 (centres unmarked) [Compound 105, 2-[6-(2,5-diazabicyclo[2.2.1]heptan-2-yl)pyridazin-3-yl]-5-(7-fluoro-2-methyl-2H-indazol-5-yl)pyridin-3-ol]	≥ 7.00
Cc1cn2cc(-c3cnc(-c4ccc(N5CCC6(CCN6)C5)nn4)c(O)c3)ccc2n1 (centres unmarked) [Compound 107, 2-[6-(1,6-diazaspiro[3.4]octan-6-yl)pyridazin-3-yl]-5-(2-methylimidazo[1,2-a]pyridin-6-yl)pyridin-3-ol]	≥ 7.00
CC1CN(c2ccc(-c3ncc(NCc4cccnc4)cc3O)nn2)CCN1 (centres unmarked) [Compound 110, 2-[6-(3-methylpiperazin-1-yl)pyridazin-3-yl]-5-{[(pyridin-3-yl)methyl]amino}pyridin-3-ol]	6.00 to 6.30
CC1CN(c2ccc(-c3ncc(NCc4cnc5ccccc5c4)cc3O)nn2)CCN1 (centres unmarked) [Compound 112, 2-[6-(3-methylpiperazin-1-yl)pyridazin-3-yl]-5-{[(quinolin-3-yl)methyl]amino}pyridin-3-ol]	6.00 to 6.30
Cc1cn2cc(-c3cnc(-c4ccc(N5C[C@@H](C)N[C@@H](C)C5)nn4)c(O)c3)cnc2n1 [Compound 115, 2-{6-[(3R,5S)-3,5-dimethylpiperazin-1-yl]pyridazin-3-yl}-5-(2-methylimidazo[1,2-a]pyrimidin-6-yl)pyridin-3-ol and 2-{6-[(3S,5R)-3,5-dimethylpiperazin-1-yl]pyridazin-3-yl}-5-(2-methylimidazo[1,2-a]pyrimidin-6-yl)pyridin-3-ol]	6.30 to 7.00
C[C@@H]1CN(c2ccc(-c3ncc(/C=C/c4cnn(C)c4)cc3O)nn2)C[C@H](C)N1 [Compound 118, 2-{6-[(3R,5S)-3,5-dimethylpiperazin-1-yl]pyridazin-3-yl}-5-[(E)-2-(1-methyl-1H-pyrazol-4-yl)ethenyl]pyridin-3-ol and 2-{6-[(3S,5R)-3,5-dimethylpiperazin-1-yl]pyridazin-3-yl}-5-[(E)-2-(1-methyl-1H-pyrazol-4-yl)ethenyl]pyridin-3-ol]	≥ 7.00
CCC1CN(c2ccc(-c3ncc(-c4cn[nH]c4)cc3O)nn2)CCN1 (centres unmarked) [Compound 119, 2-[6-(3-ethylpiperazin-1-yl)pyridazin-3-yl]-5-(1H-pyrazol-4-yl)pyridin-3-ol]	≥ 7.00
CCC1CN(c2ccc(-c3ncc(-c4cc(F)c5nn(C)cc5c4)cc3O)nn2)CCN1 (centres unmarked) [Compound 120, 2-[6-(3-ethylpiperazin-1-yl)pyridazin-3-yl]-5-(7-fluoro-2-methyl-2H-indazol-5-yl)pyridin-3-ol]	≥ 7.00
CC(C)[C@H]1CN(c2ccc(-c3ncc(-c4cc(F)c5nn(C)cc5c4)cc3O)nn2)CCN1 [Compound 122, 5-(7-fluoro-2-methyl-2H-indazol-5-yl)-2-{6-[(3S)-3-(propan-2-yl)piperazin-1-yl]pyridazin-3-yl}pyridin-3-ol]	≥ 7.00
Oc1cc(-c2cn[nH]c2)cnc1-c1ccc(N2CCNC(C3CC3)C2)nn1 (centres unmarked) [Compound 123, 2-[6-(3-cyclopropylpiperazin-1-yl)pyridazin-3-yl]-5-(1H-pyrazol-4-yl)pyridin-3-ol]	≥ 7.00
C[C@@H]1CN(c2ccc(-c3ncc(-c4ccc5nn(C)cc5c4)cc3O)nn2)C[C@H](C)N1 [Compound 124, 2-{6-[(3R,5S)-3,5-dimethylpiperazin-1-yl]pyridazin-3-yl}-5-(2-methyl-2H-indazol-5-yl)pyridin-3-ol and 2-{6-[(3S,5R)-3,5-dimethylpiperazin-1-yl]pyridazin-3-yl}-5-(2-methyl-2H-indazol-5-yl)pyridin-3-ol]	≥ 7.00
C[C@@H]1CN(c2ccc(-c3ncc(-c4ccc5c(cnn5C)c4)cc3O)nn2)C[C@H](C)N1 [Compound 126, 2-{6-[(3R,5S)-3,5-dimethylpiperazin-1-yl]pyridazin-3-yl}-5-(1-methyl-1H-indazol-5-yl)pyridin-3-ol and 2-{6-[(3S,5R)-3,5-dimethylpiperazin-1-yl]pyridazin-3-yl}-5-(1-methyl-1H-indazol-5-yl)pyridin-3-ol]	6.30 to 7.00
Oc1cc(-n2nccn2)cnc1-c1ccc(N2CCN[C@@H](C3CC3)C2)nn1 [Compound 128, 2-{6-[(3S)-3-cyclopropylpiperazin-1-yl]pyridazin-3-yl}-5-(2H-1,2,3-triazol-2-yl)pyridin-3-ol]	≥ 7.00
